The IC50 is the concentration that gives 50% inhibition. A high value points to a need for much substance. In general, solubility refers to the dissolved amount per volume that the medium holds.

The text below walks through data of patent publication US20190241535A1, “3-SUBSTITUTED CARBONYL-NAPHTHO[2,3-B]FURANE DERIVATIVE OR PHARMACEUTICALLY ACCEPTABLE SALT THEREOF” (Boston Biomedical, Inc., priority 2014, published 2019).

≈ marks a conversion by molar mass, not a printed value. Read-outs that look alike come from different tables or passages of the source.

The test system of series [1] is FaDu cell. The series is described as follows: Test 1: growth inhibition in cancer cell (Bulk IC50). The format is cell-based. As to conditions: Homo sapiens, 96 h, adherent culture, incubated 4 days, CellTiter-Glo. The procedure:
(§1) HCT-116 cell, HT-29 cell, and FaDu cell were obtained from the American Type Culture Collection (ATCC). HCT-116 cell and HT-29 cell were cultivated at 37° C. in the presence of 5% CO2 using McCoy's 5a medium containing 10% fetal bovine serum (FBS), and 1% penicillin/streptomycin; and FaDu cell was cultivated at 37° C. in the presence of 5% CO2 using MEM containing 10% FBS, 1% non-essential amino acid, 1% sodium pyruvate, and 1% penicillin/streptomycin. Each cell was seeded on μClear-plate black 384 wells (Greiner bio-one Cat. No. 781091) in 300-600 cells/well, and then each test sample was added thereto to adjust the final concentration thereof in DMSO to 0.1% and the test wells were incubated for 4 days. And then, the viable cell count of each sample was measured using CellTiter-Glo® Luminescent Cell Viability Assay (Promega), and the concentration to inhibit the cell growth in each test sample by 50% was calculated (Bulk IC50 Value; μM).
Background: ATP-based viability assays read luminescence as a measure of living cells.

Series [2] deals with HCT-116 cell. Described as above. The format is cell-based. As to conditions: Homo sapiens, 96 h, adherent culture, incubated 4 days, CellTiter-Glo. The procedure: as §1
Series [3] deals with HT-29 cell. The series is described as above. The format is cell-based. As to conditions: Homo sapiens, 96 h, adherent culture, incubated 4 days, CellTiter-Glo. The procedure:
as §1

Another series in a line: Test 3: solubility test. The format is physicochemical. Particulars: kinetic from dmso stock, 1% DMSO, HPLC. The procedure: Each 15 μL of each test sample (10 mM DMSO solution) was dispensed into 4 Utubes on a 96 well rack. Then, each sample was evaporated to dryness with a rotary evaporator. 3 μL of DMSO was added to each dried sample to be re-dissolved. And, 300 μL of pH 7.4 buffer was added to the 2 wells and 300 μL of pH 1.2 buffer was added to the other 2 wells. After shaking each sample solution, the samples were still stood. Then, each sample solution was centrifuged to remove insoluble matter, and 100 μL of the supernatant was picked up on a 96 well plate. Separately, 2 μL of each test sample (10 mM DMSO solution) was dispensed on a 96 well plate, and diluted with 198 μL of 50% acetonitrile to prepare each 100 μM standard solution. Further, the 100 μM standard solution was diluted with 50% acetonitrile to prepare each 10 μM standard solution. The above test samples for the solubility test and the two kinds of the standard samples were analyzed with a HPLC. The solubility of each test sample was calculated as an area ratio per the standard solutions.

Series [4] can be described thus: Test 4: concentration of the test compounds in plasma. As to conditions: mouse, po, 25 mg/kg, 25 mg/kg po. The format is in vivo. The procedure: Administration method: The test compound scaled to a given weight was suspended in 0.5% methylcellulose to prepare an administration solution. A mouse was weighed, and the administration solution was orally administered to the mouse depending on its weight.
Blood sampling method: EDAT-2K was added to a blood collection tube, into which the blood of the mouse was sampled. The sampled blood was centrifuged to give plasma.
Preparation of standard solution: The test compound scaled to 1 mg was dissolved in 10 mL of MeOH in a volumetric flask to prepare a 100 μg/mL standard solution.
Measure of the concentration in plasma: The 100 μg/mL standard solution was diluted with MeOH to prepare a sample for calibration curve which has the desired concentration. To 50 μL of the sample for calibration curve was added 50 μL of the blank plasma to prepare a sample for plasma calibration curve. To 50 μL of the plasma sample treated with the test compound was added 50 μL of MeOH to prepare a sample for analyzing plasma. To each 100 μL of the sample for plasma calibration curve and the sample for analyzing plasma was added 150 μL of MeOH containing an internal standard respectively. The internal standard used herein was bezafibrate, the concentration of which was 200 nM. Each 5 μL of the samples was analyzed with an LC-MS. The calibration curve was prepared based on the peak ratio of MS peak area of the test sample per that of the internal standard, and the concentration of the sample for plasma calibration curve. The concentration of the test compound in each sample was calculated based on the peak ratio of each sample, and the calibration curve.

Series [5] relates to FaDu cell. The series is described as follows: Test 2: inhibition of forming cancer cell sphere (Sphere IC50). Particulars: Homo sapiens, 96 h, ultra-low attachment plate, serum-free sphere medium, 4 days, CellTiter-Glo. The format is cell-based. The procedure:
(§2) HCT-116 cell, HT-29 cell, and FaDu cell were obtained from the American Type Culture Collection (ATCC). HCT-116 cell and HT-29 cell were cultivated at 37° C. in the presence of 5% CO2 using McCoy's 5a medium containing 10% fetal bovine serum (FBS), and 1% penicillin/streptomycin; and FaDu cell was cultivated at 37° C. in the presence of 5% CO2 using MEM containing 10% FBS, 1% non-essential amino acid, 1% sodium pyruvate, and 1% penicillin/streptomycin. Each of HCT-116 cell, HT-29 cell, and FaDu cell was seeded on 384 Wells Black Clear Bottom Ultra-Low Attachment Microplate (Corning Cat. No. 3827) in 350-800 cells/well, with DMEM/F12 medium containing 2% B27 supplement (GIBCO), 20 ng/mL epidermal growth factor (EGF) (peprotech), 10 ng/mL basic fibroblast growth factor (bFGF) (peprotech), 5 μg/mL insulin (Sigma), and 1% penicillin/streptomycin. Each test sample was added thereto to adjust the final concentration thereof in DMSO to 0.1% and the test wells were incubated for 4 days. And then, the viable cell count of each sample was measured using CellTiter-Glo® Luminescent Cell Viability Assay (Promega), and the concentration to inhibit the cell growth in each test sample by 50% was calculated (Sphere IC50 Value;μM).

For series [6], the system named is HCT-116 cell. The description is as above. The format is cell-based. As to conditions: Homo sapiens, 96 h, ultra-low attachment plate, serum-free sphere medium, 4 days, CellTiter-Glo. The procedure:
as §2

In series [7] the test system is HT-29 cell. The description is as above. The format is cell-based. As to conditions: Homo sapiens, 96 h, ultra-low attachment plate, serum-free sphere medium, 4 days, CellTiter-Glo. On the procedure:
as §2

[8] abbreviates: animal 1, read-out: Concentration in plasma, animal 1.
The mark [9] stands for this setting: animal 2, read-out: Concentration in plasma, animal 2.
Setting [10] is: animal 3, read-out: Concentration in plasma, animal 3.
Setting [11] is: mean of 3, read-out: Concentration in plasma, mean.

With `CN1CCN(C(=O)c2c(C(F)(F)F)oc3c2C(=O)c2ccccc2C3=O)CC1` [Example 8, 3-(4-Methylpiperazine-1-carbonyl)-2-(trifluoromethyl)naphtho[2,3-b]furan-4,9-dione], the IC50 came to 500 nM in the series with FaDu cell [1]; 530 nM with HCT-116 cell [2]; 640 nM in the series on HT-29 cell [3]; 500 nM in the series with FaDu cell [5]; 530 nM in the series with HCT-116 cell [6]; 640 nM in the series with HT-29 cell [7]. Moreover, the solubility in the series “Test 3: solubility test” (aqueous buffer, pH 7.4 buffer, read-out: Solubility pH 7.4) is 138 µg/mL (≈ 352 µM); in the series “Test 3: solubility test” (simulated gastric fluid, pH 1.2 buffer, read-out: Solubility pH 1.2), 160 µg/mL (≈ 408 µM). In addition, the concentration at 2 hr in series [4] (setting [8]) was 508 ng/mL; in series [4] (setting [9]) it was 473 ng/mL; in series [4] (setting [10]), 384 ng/mL; in series [4] (setting [11]), 455 ng/mL. For the same molecule, the concentration at 6 hr turned out to be 351 ng/mL in series [4] (setting [8]), 2800 ng/mL in series [4] (setting [9]), 334 ng/mL in series [4] (setting [10]) and 1160 ng/mL in series [4] (setting [11]).
